Test [1] has as its target T1, IL-17A : IL-17RA binding (Homo sapiens, UniProt Q16552, K93Q).
T1 construct: Name: IL-17A-Flag
Briefly: IL-17A(FLAG-tagged):IL-17RA(His-tagged) binding disruption Eu-HTRF assay, Protocol 1. To be noted: FLAG-IL-17A 2.5 nM at 2x final concentration; average if tested more than once. The procedure, abridged: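 IC50 came from a one-site competition fit of the acceptor/donor (665/620 nm) HTRF ratio. His-tagged IL-17RA, Eu-anti-FLAG and D2-anti-His were added after a 1 h rt compound preincubation with FLAG-tagged IL-17A dimer in PBS/0.01% Triton X-100, followed by 2 h at rt before reading.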

Test [2] concerns the target T1, IL-17A : IL-17RA binding. Kind of test: IL-17A(FLAG-tagged):IL-17RA(His-tagged) binding disruption Eu-HTRF assay, Protocol 2. The settings on record: FLAG-IL-17A 1 nM at 2x final concentration; average if tested more than once. The text has this: An antibody directed against the FLAG tag of IL-17A (SEQ ID NO: 1) is labeled with the HTRF donor chromophore (Europium-cryptate). IL-17A is present as a dimer that is “locked into” this quaternary structure due to the formation of loop-spanning […] disulfide bridges. The construct of IL-17RA used in the assay excludes the […] portion of the receptor and is fused to a C-terminal 10×His tag (SEQ ID NO:2). An antibody directed against the His tag of the IL-17RA chimera is labeled with the HTRF acceptor chromophore (“D2”). The fluorescence-resonance energy transfer (FRET) depends on the vicinity of the donor chromophore to the acceptor, and interruption of the binding between the IL-17A and IL-17RA causes the reduction/loss of FRET. Therefore, this assay allows to evaluate the compound effect on the binding IL-17A and IL-17RA by monitoring the fluorescence intensity of donor vs acceptor. The assay was run using either Protocol 1 or Protocol 2 as described below.
Protocol 2. 40 nl of 2-fold serial diluted compound solution for total 22 dilution points is added into each well of a 1536-well, white, low-volume, non-binding plate (Greiner #782904), then 2 μl of FLAG tagged IL-17A at 2× final concentration (1 nM) in solution of PBS+0.01% Triton-X100 is added to each well. The assay plate is briefly centrifuged then incubated for 1 h at rt. A mixed solution is prepared containing 2×5 nM 10HIS×IL-17RA, 2×2.5 nM Eu-anti-FLAG (CISBIO), 2×5 nM D2-anti-HIS (CISBIO) in PBS+0.01% Triton-X100+200 mM Potassium Fluoride (Sigma 60238) and 2 μl of mix is added to each well of the assay plate. The plate is briefly centrifuged then incubated for 2 h at rt. The HTRF intensities at the wavelength of donor (615 nm) and acceptor (665 nm) are measured using BMG Pherastar. The ratio between intensities at two wavelengths is calculated and plotted against the compound concentration and the data is fitted to a one-site competition model to yield IC50 of the compound.
On the technique in general: Time-resolved FRET reads energy transfer from a long-lived donor to a nearby acceptor.

In test [3] the test system is IL-17A-induced G-CSF production in human normal keratinocyte (NHK). Kind of test: NHK assay: IL-17A-induced G-CSF production in normal human keratinocytes. Type of test: cell-based. To be noted: 24 h, IL-17A 5 ng/mL, average if tested more than once. The essentials: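 IC50 derives from G-CSF in supernatants, quantified by HTRF from a standard curve, with CellTiter-Glo viability compared to DMSO control. Before a 24 h, 37°C culture of normal human keratinocytes at 3000–4000 cells/well, compound dilutions were preincubated 1 h at rt with human IL-17A (5 ng/mL final), with 0.2% DMSO and 5% FBS.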

Experimental findings from patent US20240376085A1 (Janssen Pharmaceutica NV, priority 2021, published 2024) are described below.

T1 sequence (Q16552 with tags, fused parts or gaps K93Q): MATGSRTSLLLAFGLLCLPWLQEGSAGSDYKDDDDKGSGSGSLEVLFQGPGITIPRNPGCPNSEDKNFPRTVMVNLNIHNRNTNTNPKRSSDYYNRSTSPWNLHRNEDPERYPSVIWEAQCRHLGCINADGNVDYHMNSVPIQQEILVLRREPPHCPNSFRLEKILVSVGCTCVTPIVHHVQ

Consider `COC[C@H](NC(=O)CC1CC(F)(F)C1)c1ccc2nc([C@H](COC(C)(C)C(F)(F)F)NC(=O)c3nonc3C3CC3)[nH]c2c1` (relative stereo) [Example 164, 4-Cyclopropyl-N—((R)-1-(5-((R*)-1-(2-(3,3-difluorocyclobutyl)acetamido)-2-methoxyethyl)-1H-benzo[d]imidazol-2-yl)-2-((1,1,1-trifluoro-2-methylpropan-2-yl)oxy)ethyl)-1,2,5-oxadiazole-3-carboxamide], for which the IC50 on IL-17A : IL-17RA binding [1] was less than 50 nM; at IL-17A : IL-17RA binding [2], less than 50 nM; in test [3] (Homo sapiens, Keratinocyte), less than 50 nM.
As for `Cc1nonc1C(=O)N[C@H](c1nc2cc([C@@H](COC3CC3)NC(=O)CC3CC(F)(F)C3)ccc2[nH]1)[C@@H](C)OC(C)(C)C(F)(F)F` [Example 271, N-((1R,2R)-1-(5-((S)-2-Cyclopropoxy-1-(2-(3,3-difluorocyclobutyl)acetamido)ethyl)-1H-benzo[d]imidazol-2-yl)-2-((1,1,1-trifluoro-2-methylpropan-2-yl)oxy)propyl)-4-methyl-1,2,5-oxadiazole-3-carboxamide], the IC50 at IL-17A : IL-17RA binding [2] is 50 to 100 nM; in test [3] (Homo sapiens, Keratinocyte), less than 50 nM.
For `C[C@@H](OC1CC1)[C@H](NC(=O)c1nonc1C1CC1)c1nc2cc([C@@H](COC3CC3)NC(=O)CC3CC(F)(F)C3)ccc2[nH]1` [Example 276, N-((1R,2R)-2-Cyclopropoxy-1-(5-((S)-2-cyclopropoxy-1-(2-(3,3-difluorocyclobutyl)acetamido)ethyl)-1H-benzo[d]imidazol-2-yl)propyl)-4-cyclopropyl-1,2,5-oxadiazole-3-carboxamide], the IC50 on IL-17A : IL-17RA binding [2] is 50 to 100 nM; in test [3] (Homo sapiens, Keratinocyte) it was less than 50 nM.
The corresponding values for `CC(C)n1nccc1C(=O)N[C@H](c1nc2cc([C@@H](COC3CC3)NC(=O)CC3CC(F)(F)C3)ccc2[nH]1)[C@@H](C)O[C@@H](C)C(F)(F)F` [Example 273, N-((1R,2R)-1-(5-((S)-2-Cyclopropoxy-1-(2-(3,3-difluorocyclobutyl)acetamido)ethyl)-1H-benzo[d]imidazol-2-yl)-2-(((S)-1,1,1-trifluoropropan-2-yl)oxy)propyl)-1-isopropyl-1H-pyrazole-5-carboxamide] are more than 100 nM and less than 50 nM.
`C[C@@H](NC(=O)CC1CC(F)(F)C1)c1ccc2nc(C(COC(C)(C)C(F)(F)F)NC(=O)c3nonc3C3CC3)[nH]c2c1` (single isomer, unassigned) [Example 152, 4-Cyclopropyl-N—((R*)-1-(6-((R)-1-(2-(3,3-difluorocyclobutyl)acetamido)ethyl)-1H-benzo[d]imidazol-2-yl)-2-((1,1,1-trifluoro-2-methylpropan-2-yl)oxy)ethyl)-1,2,5-oxadiazole-3-carboxamide]: the IC50 on IL-17A : IL-17RA binding [1] was less than 50 nM; on IL-17A : IL-17RA binding [2] it was less than 50 nM; in test [3] (Homo sapiens, Keratinocyte), less than 50 nM.
On to `CC(C)n1nccc1C(=O)N[C@H](c1nc2ccc([C@@H](C)NC(=O)CCC(F)(F)F)cc2[nH]1)C1CCC(F)(F)CC1` [Example 122, N—((S)-(4,4-Difluorocyclohexyl)(6-((R)-1-(4,4,4-trifluorobutanamido)ethyl)-1H-benzo[d]imidazol-2-yl)methyl)-1-isopropyl-1H-pyrazole-5-carboxamide], for which the IC50 was more than 100 nM at IL-17A : IL-17RA binding [1]; more than 100 nM at IL-17A : IL-17RA binding [2]; less than 50 nM in test [3] (Homo sapiens, Keratinocyte).
For the molecule `Cc1nonc1C(=O)N[C@H](c1nc2cc([C@@H](COC3CC3)NC(=O)C[C@H]3CC3(F)F)ccc2[nH]1)[C@@H](C)O[C@H](C)C(F)(F)F` [Example 275, N-((1R,2R)-1-(5-((S)-2-Cyclopropoxy-1-(2-((S)-2,2-difluorocyclopropyl)acetamido)ethyl)-1H-benzo[d]imidazol-2-yl)-2-(((R)-1,1,1-trifluoropropan-2-yl)oxy)propyl)-4-methyl-1,2,5-oxadiazole-3-carboxamide], the 50% inhibitory concentration (IC50) at IL-17A : IL-17RA binding [2] fell in the range of 50 to 100 nM; in test [3] (Homo sapiens, Keratinocyte), 50 to 100 nM.
Consider `Cc1nonc1C(=O)N[C@H](c1nc2cc([C@@H](COC3CC3)NC(=O)CC3CC(F)(F)C3)ccc2[nH]1)[C@@H](C)O[C@@H](C)C(F)(F)F` [Example 272, N-((1R,2R)-1-(5-((S)-2-Cyclopropoxy-1-(2-(3,3-difluorocyclobutyl)acetamido)ethyl)-1H-benzo[d]imidazol-2-yl)-2-(((S)-1,1,1-trifluoropropan-2-yl)oxy)propyl)-4-methyl-1,2,5-oxadiazole-3-carboxamide], for which the IC50 at IL-17A : IL-17RA binding [2] was more than 100 nM; in test [3] (Homo sapiens, Keratinocyte) it was less than 50 nM.
Consider `Cc1nonc1C(=O)N[C@@H](CO[C@@H](C)C(F)(F)F)c1nc2ccc([C@H](NC(=O)CC3CC(F)(F)C3)C3CC3)cc2[nH]1` (relative stereo) [Example 151, N—((R*)-1-(6-((R)-Cyclopropyl(2-(3,3-difluorocyclobutyl)acetamido)methyl)-1H-benzo[d]imidazol-2-yl)-2-(((S*)-1,1,1-trifluoropropan-2-yl)oxy)ethyl)-4-methyl-1,2,5-oxadiazole-3-carboxamide], for which the IC50 at IL-17A : IL-17RA binding [1] was less than 50 nM; on IL-17A : IL-17RA binding [2], 50 to 100 nM; in test [3] (Homo sapiens, Keratinocyte), more than 100 nM.
`C[C@@H](NC(=O)CCC(F)(F)F)c1ccc2[nH]c([C@@H](NC(=O)c3ccnn3C)C3CCC(F)(F)CC3)nc2c1` [Example 118, N—((S)-(4,4-Difluorocyclohexyl)(5-((R)-1-(4,4,4-trifluorobutanamido)ethyl)-1H-benzo[d]imidazol-2-yl)methyl)-1-methyl-1H-pyrazole-5-carboxamide]: the IC50 on IL-17A : IL-17RA binding [1] is more than 100 nM; in test [3] (Homo sapiens, Keratinocyte), 50 to 100 nM.
As for `C[C@@H](NC(=O)CCC(F)(F)F)c1ccc2[nH]c([C@@H](NC(=O)c3nccn3CCC(F)(F)F)C3CCC(F)(F)CC3)nc2c1` [Example 227, N—((S)-(4,4-Difluorocyclohexyl)(5-((R)-1-(4,4,4-trifluorobutanamido)ethyl)-1H-benzo[d]imidazol-2-yl)methyl)-1-(3,3,3-trifluoropropyl)-1H-imidazole-2-carboxamide], the IC50 at IL-17A : IL-17RA binding [1] was more than 100 nM; in test [3] (Homo sapiens, Keratinocyte) it was more than 100 nM.
In the case of `C[C@@H](NC(=O)CCC(F)(F)F)c1ccc2[nH]c(C(CC(C)(C)C(F)(F)F)NC(=O)c3cnn(CC4CC4)n3)nc2c1` (single isomer, unassigned) [Example 218, 2-(Cyclopropylmethyl)-N—((S*)-4,4,4-trifluoro-3,3-dimethyl-1-(5-((R)-1-(4,4,4-trifluorobutanamido)ethyl)-1H-benzo[d]imidazol-2-yl)butyl)-2H-1,2,3-triazole-4-carboxamide], the IC50 (at IL-17A : IL-17RA binding [1]; in test [3]) was more than 100 nM throughout.
In the case of `Cc1nonc1C(=O)N[C@H](c1nc2cc([C@@H](COC3CC3)NC(=O)CC3CC(F)(F)C3)ccc2[nH]1)[C@@H](C)O[C@@H](C)C(F)(F)F` [Example 274, N-((1R,2R)-1-(5-((S)-2-Cyclopropoxy-1-(2-(3,3-difluorocyclobutyl)acetamido)ethyl)-1H-benzo[d]imidazol-2-yl)-2-(((S)-1,1,1-trifluoropropan-2-yl)oxy)propyl)-4-methyl-1,2,5-oxadiazole-3-carboxamide], the 50% inhibitory concentration (IC50) (at IL-17A : IL-17RA binding [2]; in test [3]) was 50 to 100 nM each time.
With `Cc1nonc1C(=O)N[C@H](c1nc2cc([C@@H](COC3CC3)NC(=O)C[C@H]3CC3(F)F)ccc2[nH]1)[C@@H](C)OC(C)(C)C(F)(F)F` [Example 270, N-((1R,2R)-1-(5-((S)-2-Cyclopropoxy-1-(2-((S)-2,2-difluorocyclopropyl)acetamido)ethyl)-1H-benzo[d]imidazol-2-yl)-2-((1,1,1-trifluoro-2-methylpropan-2-yl)oxy)propyl)-4-methyl-1,2,5-oxadiazole-3-carboxamide], the 50% inhibitory concentration (IC50) on IL-17A : IL-17RA binding [2] was in the range of 50 to 100 nM; in test [3] (Homo sapiens, Keratinocyte), 50 to 100 nM.

Usually IC50 stands for the concentration needed to halve the response being measured.
